# Experimental data published in PMC12689286, “Enhanced therapeutics of cabazitaxel via polycarboxylate conjugation: improved solubility, safety, and antitumor efficacy” (Frontiers in Immunology, 2025).
# How the values were obtained:
# [1] = Plasma pharmacokinetics (non-compartmental); details: SD rats
# Method: (§1) Male and female SD rats (200–220 g) received intravenous injections of CTX or CTX-DTPA (6 μmol/kg). CTX was dissolved in 2.5% Tween 80/2.5% EtOH/saline, while CTX-DTPA used saline alone. Blood samples were collected at 5 min to 24 h post-dose. Tissues (heart, liver, spleen, lung, kidney, thymus) and excreta were collected at 15 min, 2 h, 4 h, and 12 h. Plasma and tissue samples were processed by liquid-liquid extraction with n-butanol and analyzed via LC-MS/MS (Agilent Poroshell 120 EC-C18 column; 0.05% formic acid/acetonitrile gradient). Pharmacokinetic parameters were calculated using DAS 2.0 via non-compartmental analysis.
# Tissue distribution = details: CTX metabolite after CTX-DTPA 6 μmol/kg iv, SD rats
# Method: as §1
# [2] = Systemic toxicity in H22 tumor-bearing mice (body weight, blood count); type: in vivo, KM mice; details: H22 mice, throughout treatment, across all dose groups (9.6 and 19.1 μmol/kg)
# Method: H22 hepatoma model: Female KM mice were subcutaneously implanted with H22 cells (2×10^6 cells/mouse) and assigned to six groups: (a) Vehicle control; (b) CTX (9.6 μmol/kg in 5% glucose with 2.5% ethanol/2.5% Tween 80); (c) CTX-TTHA (9.6 μmol/kg in saline); (d) CTX-DTPA (9.6 μmol/kg in saline); (e) CTX-TTHA (19.1 μmol/kg in saline); (f) CTX-DTPA (19.1 μmol/kg in saline).
# Treatments were administered every other day for four doses (three doses for CTX group due to weight loss >15%). Peripheral blood samples were collected for complete blood count analysis using an automated hematology analyzer.
# PC-3 = assay: MTS cytotoxicity, PC-3; type: cell-based; details: Homo sapiens; PC-3, MTS
# Method: (§2) Human cancer cell lines were cultured in basic medium (10% fetal bovine serum (FBS)+1% double antibody solution) (Biological Industries) at 37°C in a 5% CO2 incubator. Effects of CTXs on cell proliferation and viability were measured by an MTS (Promega Corporation) assay. Absorbance values at 490 nm were measured using a microplate reader (Thermo Scientific, Varioskan Flash) ([22]).
# H358 = assay: MTS cytotoxicity, H358; type: cell-based; details: Homo sapiens, NCI-H358
# Method: as §2
# MCF-7 = assay: MTS cytotoxicity, MCF-7; type: cell-based; details: Homo sapiens, MCF7; MCF-7, MTS
# Method: as §2
# [3] = Lipid-aqueous (octanol/water) partition coefficient; type: physicochemical; details: room temperature
# Method: CTXs were dissolved in octanol, and an equal volume of water was added, followed by shaken at 100 rpm for 24 h at room temperature. The upper octanol phase and lower water phase were separated by centrifugation. The supernatant was analyzed by HPLC (Bruker SolanX 70 FT-MS; Agilent 6540TOF) ([21]).
# MCF-7 xenografts = assay: MCF-7 breast cancer xenograft, tumor volume; type: in vivo, BALB/c nude mice; details: MCF-7 xenograft, 9.6 μmol/kg
# Method: (§3) All animal experiments were conducted in accordance with protocols approved by the Institutional Animal Care and Use Committee of Peking Union Medical College. Male BALB/c nude mice (6–8 weeks old) and female KM mice (6–8 weeks old) were purchased from Charles River Laboratories (Beijing, China) and maintained under specific pathogen-free conditions.
# MCF-7 Breast Cancer Model: Female BALB/c nude mice bearing MCF-7 xenografts (2×10^6 cells/mouse) were randomized into treatment groups as described above, with an adjusted dose of 9.6 μmol/kg for all CTX formulations.
# L-02 = assay: MTS cytotoxicity, L-02 (non-tumor); type: cell-based; details: Homo sapiens, L02, L-02 non-tumor cell line
# Method: as §2
# A549 = assay: MTS cytotoxicity, A549; type: cell-based; details: Homo sapiens
# Method: as §2
# Fadu = assay: MTS cytotoxicity, Fadu; type: cell-based; details: Homo sapiens
# Method: as §2
# H520 = assay: MTS cytotoxicity, H520; type: cell-based; details: Homo sapiens, NCI-H520
# Method: as §2
# DU145 = assay: MTS cytotoxicity, DU145; type: cell-based; details: Homo sapiens, DU-145
# Method: as §2
# [4] = tested on: DU145 prostate cancer model; assay: DU145 prostate cancer xenograft, tumor volume; type: in vivo, BALB/c nude mice; details: 3 μmol/kg tail vein, three times at 3-day intervals, control 500 ± 45 mm³
# Method: as §3
# DU145 Prostate cancer model: DU145 cells (3×10^6 cells/mouse) were subcutaneously inoculated into the right flank of BALB/c nude mic. When tumors reached approximately 100 mm³, mice were randomly divided into four treatment groups (n=6/group): (a) Vehicle control; (b) CTX (3 μmol/kg); (c) CTX-TTHA (3 μmol/kg); (d) CTX-DTPA (3 μmol/kg). Treatments were administered via tail vein injection three times at 3-day intervals. Major organs were collected for histopathological examination after the final administration.
# LN229 = assay: MTS cytotoxicity, LN229; type: cell-based; details: Homo sapiens, LN-229
# Method: as §2
# HT-29 = assay: MTS cytotoxicity, HT-29; type: cell-based; details: Homo sapiens; HT-29, MTS
# Method: as §2
# SK-OV-3 = assay: MTS cytotoxicity, SK-OV-3; type: cell-based; details: Homo sapiens; SK-OV-3, MTS
# Method: as §2
# 3T3 = assay: MTS cytotoxicity, 3T3 (non-tumor); type: cell-based; details: Mus musculus, NIH3T3, 3T3 non-tumor cell line
# DU145 cells = assay: Cell cycle arrest (PI, flow cytometry); type: cell-based, human; details: 24 h
# Method: Cells were incubated with drugs for 24 h. Fixed cells were incubated with RNase A and stained with propidium iodide (PI). DNA content was determined in a flow cytometer (BD FACS CaliburTM Flow Cytometer, USA) ([23]).
# Bel-7402 = assay: MTS cytotoxicity, Bel-7402; type: cell-based; details: Homo sapiens; Bel-7402, MTS
# Method: as §2
# HCT 116 = assay: MTS cytotoxicity, HCT 116; type: cell-based; details: Homo sapiens; HCT 116, MTS
# Method: as §2
# [5] = tested on: rat red blood cells (RBCs); assay: Hemolysis test; type: cell-based, SD rats; details: vs unmodified CTX
# Method: (§4) The hemolytic potential of CTX formulations was evaluated using rat red blood cells (RBCs). Briefly, whole blood was collected from the abdominal aorta of anesthetized SD rats into ACD anticoagulant (blood:ACD = 1:4, v/v). The blood was diluted with normal saline (4:5, v/v) and centrifuged at 450 g for 10 min. The RBC pellet was washed three times with normal saline until the supernatant was clear. The washed RBCs were then resuspended in normal saline to prepare a 2% (v/v) suspension.
# (§5) For the assay, 500 μL of the 2% RBC suspension was mixed with an equal volume of serially diluted drugs or controls in 1.5 mL tubes. The controls included: Negative control (0% hemolysis): normal saline. Positive control (100% hemolysis): distilled water. Solvent control: the vehicle for unmodified CTX (2.5% Tween 80 + 2.5% anhydrous ethanol + 95% normal saline). The mixtures were incubated at 37 °C for 1.5 h and then centrifuged at 450 g for 5 min. Subsequently, 150 μL of the supernatant from each tube was transferred to a 96-well plate, and the absorbance at 545 nm (OD545) was measured using a microplate reader. The percentage of hemolysis was calculated using the following formula: Hemolysis (%) = [(ODsample - ODnegative control)/(ODpositive control - ODnegative control)] × 100.
# Hemolysis test = type: cell-based, SD rats; details: SD, rat, rat red blood cells, 2% (v/v) suspension, 37 °C, 1.5 h
# Method: as §4, §5
# H460 = assay: MTS cytotoxicity, H460; type: cell-based; details: Homo sapiens, NCI-H460
# Method: as §2
# [6] = CTX-DTPA 6 μmol/kg iv, plasma, CTX metabolite derived from CTX-DTPA
structure (smiles),measurement,setting,value
CO[C@H]1C(=O)[C@]2(C)[C@@H](OC)C[C@H]3OC[C@@]3(OC(C)=O)[C@H]2[C@H](OC(=O)c2ccccc2)[C@]2(O)C[C@H](OC(=O)[C@H](O)[C@@H](NC(=O)OC(C)(C)C)c3ccccc3)C(C)=C1C2(C)C [CTX/CTX-DTPA],Cmax relative to CTX,"[1]; 6 μmol/kg iv, CTX metabolite from CTX-DTPA vs CTX group, greater",2.2 fold
same,AUC(0-t),[1]; [6],**** 5157.71 ± 1650.87 μg/L*h
same,CL,[1]; [6],25.2 ± 6.83 mL/min/kg
same,Cmax,[1]; [6],* 6311.67 ± 1217.79 μg/L
same,MRT0-t,[1]; [6],0.72 ± 0.02 H
same,Vd,[1]; [6],* 6.04 ± 1.63 L/kg
same,t1/2,[1]; [6],**** 2.77 ± 0.00 H
same,tissue concentration,"Tissue distribution; heart, 15 min",* 2.38 ± 0.46 μg/kg
same,tissue concentration,"Tissue distribution; heart, 2 h",*** 2.27 ± 0.70 μg/kg
same,tissue concentration,"Tissue distribution; heart, 4 h",*** 1.26 ± 0.20 μg/kg
same,tissue concentration,"Tissue distribution; heart, 12 h",** 0.41 ± 0.29 μg/kg
same,tissue concentration,"Tissue distribution; kidney, 15 min",**** 53.38 ± 7.21 μg/kg
same,tissue concentration,"Tissue distribution; kidney, 2 h",** 63.87 ± 43.92 μg/kg
same,tissue concentration,"Tissue distribution; kidney, 4 h",*** 8.74 ± 0.10 μg/kg
same,tissue concentration,"Tissue distribution; kidney, 12 h",**** 3.14 ± 1.66 μg/kg
same,tissue concentration,"Tissue distribution; liver, 15 min",*** 17.88 ± 1.12 μg/kg
same,tissue concentration,"Tissue distribution; liver, 2 h",** 10.31 ± 7.28 μg/kg
same,tissue concentration,"Tissue distribution; liver, 4 h",** 4.62 ± 3.48 μg/kg
same,tissue concentration,"Tissue distribution; liver, 12 h",* 1.91 ± 1.12 μg/kg
same,tissue concentration,"Tissue distribution; lung, 15 min",*** 12.95 ± 5.49 μg/kg
same,tissue concentration,"Tissue distribution; lung, 2 h",**** 9.66 ± 5.84 μg/kg
same,tissue concentration,"Tissue distribution; lung, 4 h",**** 2.44 ± 0.01 μg/kg
same,tissue concentration,"Tissue distribution; lung, 12 h",* 1.78 ± 0.82 μg/kg
same,tissue concentration,"Tissue distribution; spleen, 15 min",** 5.49 ± 0.53 μg/kg
same,tissue concentration,"Tissue distribution; spleen, 2 h",**** 8.23 ± 4.20 μg/kg
same,tissue concentration,"Tissue distribution; spleen, 4 h",** 2.61 ± 0.42 μg/kg
same,tissue concentration,"Tissue distribution; spleen, 12 h",** 1.43 ± 0.96 μg/kg
same,tissue concentration,"Tissue distribution; thymus, 15 min",** 1.49 ± 0.02 μg/kg
same,tissue concentration,"Tissue distribution; thymus, 2 h",* 4.37 ± 5.02 μg/kg
same,tissue concentration,"Tissue distribution; thymus, 4 h",* 0.79 ± 0.28 μg/kg
same,tissue concentration,"Tissue distribution; thymus, 12 h",**** 0.80 ± 0.42 μg/kg
COC1C(=O)C2(C)C(OC)CC3OCC3(OC(C)=O)C2C(OC(=O)c2ccccc2)C2(O)CC(OC(=O)C(OC(=O)CN(CCN(CCN(CCN(CC(=O)O)CC(=O)O)CC(=O)O)CC(=O)O)CC(=O)O)C(NC(=O)OC(C)(C)C)c3ccccc3)C(C)=C1C2(C)C (stereo not shown) [CTX-TTHA],WBC counts,[2],3.50-5.60 ×10^9/L
same,IC50,PC-3,7.4 ± 2.8 nM
same,IC50,H358,1.6 ± 0.4 nM
same,IC50,MCF-7,5.5 ± 2.3 nM
same,logP at 24 h,[3],-1.37 ± 0.38
same,tumor volume at study endpoint,MCF-7 xenografts,190 ± 22 mm³
same,IC50,L-02,6.8 ± 0.4 nM
same,IC50,A549,3.3 ± 1.6 nM
same,IC50,Fadu,2.3 ± 0.9 nM
same,IC50,H520,2.1 ± 0.6 nM
same,IC50,DU145,4.1 ± 2.2 nM
same,final tumor volume,[4],270 ± 28 mm³
same,IC50,LN229,7.6 ± 3.1 nM
same,IC50,HT-29,8.4 ± 3.8 nM
same,IC50,SK-OV-3,3.2 ± 0.8 nM
same,IC50,3T3,8 ± 3.3 nM
same,cells arrested in G2/M,"DU145 cells; DU145, 1 nM",15.1 ± 0.1%
same,cells arrested in G2/M,"DU145 cells; DU145, 25 nM",69.9 ± 12.6%
same,IC50,Bel-7402,2.4 ± 0.4 nM
same,IC50,HCT 116,2.1 ± 0.9 nM
same,improvement in hemocompatibility over unmodified CTX,[5],64 fold
same,"hemolysis at 1.5 h, 300 nmol/mL","Hemolysis test; 300 nmol/mL (maximum tested), read-out: hemolysis rate",28.3 ± 13.9%
same,hemolysis at 1.5 h,Hemolysis test; concentrations up to 150 nmol/mL,< 2%
same,IC50,H460,1.9 ± 0.7 nM
